Earlier results in patent US20030073826A1 (priority 2001, published 2003).

System: bacteria
Settings: U.S. Pat. No. 3,496,163, Example 2

In the case of `CCC[C@@H]1C[C@@H](C(=O)NC(C(C)Cl)C2OC(SC)C(O)C(O)C2O)N(C)C1` (stereo partly shown) [clindamycin free base], the “antibacterial spectrum compared with the hydrochloride salt of clindamycin” value is listed as “same scope and magnitude”.
